This note sets out measurements from article PMC5876303, “Discovery of C-3 Tethered 2-oxo-benzo[1,4]oxazines as Potent Antioxidants: Bio-Inspired Based Design, Synthesis, Biological Evaluation, Cytotoxic, and in Silico Molecular Docking Studies” (Frontiers in Chemistry, 2018).

Entries after “also recorded” stand apart in the source; their conditions may differ. Bounds are passed on as bounds.

Data set [1] in a line: DPPH radical scavenging antioxidant assay. In kind it is biochemical. As to conditions: Table 1; mean ± SD, n = 3; 517 nm after 20 min. Here is the method: In DPPH radical scavenging method the plant extract (0.75 mL) at different concentrations ranging from 10 to 100 μg mL^−1 was mixed with 1.5 mL of a DPPH methanolic solution (20 mg L^−1). Pure methanol was taken as control and ascorbic acid (vitamin C), vitamins A and E were used as a reference compounds. The absorbance was measured at 517 nm after 20 min of reaction. The % of DPPH decolouration of the sample was calculated according to the formula (Sharma and Bhat, [2009]).
Decolouration % = [1−(Abs SAMPLE/Abs CONTROL)]×100
The decolouration was plotted against the sample extract concentration and a logarithmic regression curve was established in order to calculate the IC50. The results are expressed as antiradical efficiency (AE), which is 1000-fold inverse of the IC50 value AE=1000/ IC50.
A general note: The DPPH test is a chemical assay of radical scavenging.

A short description of data set [2]: Ferric reducing antioxidant power (FRAP) assay. In kind it is biochemical. The note with it: for FRAP assay (C0.5FRAP): mean ± SD, n = 3, concentration equivalent to FeSO4 at 0.5 mmol/L, 37°C, 30 min, 593 nm; for FRAP potency compared with standard reference BHT: in words, BHT C0.5FRAP = 546.0 ± 13.6 μM. Here is the method: The FRAP reagent was prepared by the addition of freshly prepared 20.0 mM FeCl3.6H2O solution, 10.0 mM of […] (TPTZ) solution and 300 mM sodium acetate buffer (pH 3.6) in a ratio of 1:1:10 (v/v/v). After that, Sample (our synthesized 2-oxo-2-phenylethylidenes-linked 2-oxo-benzo[1,4]oxazines 20a-ab) was added to 3 ml of freshly prepared FRAP reagent and this reaction mixture was incubated at 37°C temperature for 30 min. and the absorbance was measured at 593 nm. It is also noted that, a freshly prepared solution of FeSO4 was used for calibration of standard curve. The FRAP antioxidant capability were evaluated in terms of C0.5FRAP (the antioxidant capability of samples related to their concentration, which is equivalent to that of FeSO4 at 0.5 mmol/L) (Benzie and Strain, [1996]).
The FRAP assay was deliberated using the method as illustrated by Benzie and Strain (Benzie and Strain, [1996]). […] The reducing nature of an antioxidant depends on their property to donate a hydrogen atom for the breaking of the free radical chain, which is responsible for oxidative stress etc.

What is called melting point is the temperature of the solid-liquid transition.

For `O=C1O[C@H]([C@@H](O)CO)C(O)=C1O` [Ascorbic acid, reference compound], in data set [1], the DPPH assay IC50 amounted to 4.57 µg/mL.

For the compound `Cc1cc(C(C)(C)C)c(O)c(C(C)(C)C)c1` [BHT, reference compound], the “FRAP assay (C0.5FRAP)” value in data set [2] was determined as 546.0 ± 13.6 µM.

`O=C1Oc2ccccc2N/C1=C\C(=O)c1ccccc1` [Compound 20a, (Z)-3-(2-oxo-2-phenylethylidene)-3,4-dihydro-2H-benzo[b][1,4]oxazin-2-one] displayed a DPPH assay IC50 in data set [1] of 10.2 ± 0.08 µg/mL. In data set [2], the “FRAP potency compared with standard reference BHT” value is “less active than BHT” and the “FRAP assay (C0.5FRAP)” value is 611.5 ± 23.2 µM.

The compound `O=C1Oc2cc([N+](=O)[O-])ccc2N/C1=C\C(=O)c1ccc(Br)cc1` [Compound 20aa, (Z)-3-(2-(4-bromophenyl)-2-oxoethylidene)-7-nitro-3,4-dihydro-2H-benzo[b][1,4]oxazin-2-one] registered a melting point of 230 to 232 °C. Also, the DPPH assay IC50 in data set [1] was determined as 28.37 ± 0.16 µg/mL. In addition, in data set [2], the “FRAP potency compared with standard reference BHT” value is reported as “more potent than standard reference BHT” and the “FRAP assay (C0.5FRAP)” value is 518.6 ± 17.6 µM.

`COc1ccc(C(=O)/C=C2\Nc3ccc([N+](=O)[O-])cc3OC2=O)cc1` [Compound 20ab, (Z)-3-(2-(4-methoxyphenyl)-2-oxoethylidene)-7-nitro-3,4-dihydro-2H-benzo[b][1,4]oxazin-2-one] gave a DPPH assay IC50 in data set [1] of 43.6 ± 0.74 µg/mL.

Compound `O=C1Oc2ccc(Cl)cc2N/C1=C\C(=O)c1ccccc1` [Compound 20c, (Z)-6-chloro-3-(2-oxo-2-phenylethylidene)-3,4-dihydro-2H-benzo[b][1,4]oxazin-2-one] returned a melting point of 185 to 187 °C. The compound further showed a DPPH assay IC50 in data set [1] of 28.8 ± 0.6 µg/mL. In data set [2], the “FRAP potency compared with standard reference BHT” value is given as “greater potency; also recorded: more potent than standard reference BHT” and the “FRAP assay (C0.5FRAP)” value amounted to 467.8 ± 22.4 µM.

As for `O=C1Oc2ccc(Cl)cc2N/C1=C\C(=O)c1ccc(F)cc1` [Compound 20d, (Z)-6-chloro-3-(2-(4-fluorophenyl)-2-oxoethylidene)-3,4-dihydro-2H-benzo[b][1,4]oxazin-2-one], the melting point was in the range of 155 to 157 °C. This compound also returned a DPPH assay IC50 in data set [1] of 45.2 ± 0.92 µg/mL. Besides, in data set [2], the “FRAP assay (C0.5FRAP)” value was 732.7 ± 41.6 µM.

As for `O=C1Oc2ccc(Cl)cc2N/C1=C\C(=O)c1ccc(Cl)cc1` [Compound 20e, (Z)-6-chloro-3-(2-(4-chlorophenyl)-2-oxoethylidene)-3,4-dihydro-2H-benzo[b][1,4]oxazin-2-one], the melting point lay in the range of 182 to 185 °C. Besides, the DPPH assay IC50 in data set [1] came out at 92.2 ± 1.54 µg/mL.

With `O=C1Oc2ccc(Cl)cc2N/C1=C\C(=O)c1ccc(Cl)cc1Cl` [Compound 20f, (Z)-6-chloro-3-(2-(2,4-dichlorophenyl)-2-oxoethylidene)-3,4-dihydro-2H-benzo[b][1,4]oxazine-2-One], the melting point was in the range of 135 to 137 °C. The DPPH assay IC50 in data set [1] came to 56.6 ± 1.12 µg/mL.

On to `O=C1Oc2ccc(Cl)cc2N/C1=C\C(=O)c1ccc(Br)cc1` [Compound 20g, (Z)-3-(2-(4-bromophenyl)-2-oxoethylidene)-6-chloro-3,4-dihydro-2H-benzo[b][1,4]oxazin-2-one], for which the melting point lay within 175 to 177 °C. The DPPH assay IC50 in data set [1] is 61.2 ± 1.23 µg/mL. Besides, the “FRAP assay (C0.5FRAP)” value in data set [2] was 798.6 ± 32.5 µM.

On to `Cc1ccc(C(=O)/C=C2\Nc3cc(Cl)ccc3OC2=O)cc1` [Compound 20h, (Z)-6-chloro-3-(2-oxo-2-(p-tolyl)ethylidene)-3,4-dihydro-2H-benzo[b][1,4]oxazin-2-one], for which the melting point lay in the range of 160 to 162 °C. The DPPH assay IC50 in data set [1] stood at 44.8 ± 0.81 µg/mL. Besides, in data set [2], the “FRAP assay (C0.5FRAP)” value is 821.9 ± 38.7 µM.

On to `COc1ccc(C(=O)/C=C2\Nc3cc(Cl)ccc3OC2=O)cc1` [Compound 20i, (Z)-6-chloro-3-(2-(4-methoxyphenyl)-2-oxoethylidene)-3,4-dihydro-2H-benzo[b][1,4]oxazin-2-one], for which the DPPH assay IC50 in data set [1] amounted to 34.9 ± 0.73 µg/mL. Further, in data set [2], the “FRAP assay (C0.5FRAP)” value turned out to be 648.2 ± 29.5 µM.

`Cc1ccc2c(c1)N/C(=C\C(=O)c1ccc(F)cc1)C(=O)O2` [Compound 20j, (Z)-3-(2-(4-fluorophenyl)-2-oxoethylidene)-6-methyl-3,4-dihydro-2H-benzo[1,4]oxazin-2-one]: the DPPH assay IC50 in data set [1] amounted to 34.4 ± 0.7 µg/mL. Besides, in data set [2], the “FRAP potency compared with standard reference BHT” value is “more potent than standard reference BHT” and the “FRAP assay (C0.5FRAP)” value was 502.6 ± 18.2 µM.

The compound `Cc1ccc2c(c1)N/C(=C\C(=O)c1ccc(Cl)cc1Cl)C(=O)O2` [Compound 20k, (Z)-3-[2-(2,4-dichloro-phenyl)-2-oxo-ethylidene]-6-methyl-3,4-dihydro-benzo[1,4]oxazin-2-one] yielded a melting point of 142 to 145 °C. The DPPH assay IC50 in data set [1] came out at 43.6 ± 0.92 µg/mL. For the same compound, in data set [2], the “FRAP assay (C0.5FRAP)” value worked out at 652.5 ± 30.6 µM.

Regarding `COc1ccc(C(=O)/C=C2\Nc3cc(C)ccc3OC2=O)cc1` [Compound 20l, (Z)-3-[2-(4-methoxy-phenyl)-2-oxo-ethylidene]-6-methyl-3,4-dihydro-benzo[1,4]oxazin-2-one], the melting point was in the range of 180 to 182 °C. The compound also yielded a DPPH assay IC50 in data set [1] of 43.8 ± 0.85 µg/mL.

In turn, `Cc1cc(Br)c2c(c1)N/C(=C\C(=O)c1ccccc1)C(=O)O2` [Compound 20m, (Z)-8-bromo-6-methyl-3-(2-oxo-2-phenylethylidene)-3,4-dihydro-2H-benzo[b][1,4]oxazin-2-one] gave a DPPH assay IC50 in data set [1] of 24.4 ± 0.46 µg/mL. In addition, in data set [2], the “FRAP potency compared with standard reference BHT” value is “greater potency; also recorded: more potent than standard reference BHT” and the “FRAP assay (C0.5FRAP)” value came to 536.7 ± 21.4 µM.

The compound `Cc1cc(Br)c2c(c1)N/C(=C\C(=O)c1ccc(F)cc1)C(=O)O2` [Compound 20n, (Z)-8-bromo-3-(2-(4-fluorophenyl)-2-oxoethylidene)-6-methyl-3,4-dihydro-2H-benzo[b][1,4] oxazin-2-one] had a DPPH assay IC50 in data set [1] of 16.9 ± 0.72 µg/mL. Also, in data set [2], the “FRAP potency compared with standard reference BHT” value was “more potent than standard reference BHT” and the “FRAP assay (C0.5FRAP)” value stood at 482.5 ± 35.5 µM.

As to `Cc1cc(Br)c2c(c1)N/C(=C\C(=O)c1ccc(Cl)cc1Cl)C(=O)O2` [Compound 20o, (Z)-8-bromo-3-(2-(2,4-dichlorophenyl)-2-oxoethylidene)-6-methyl-3,4-dihydro-2H-benzo [b][1,4]oxazin-2-one], the DPPH assay IC50 in data set [1] was found to be 22.5 ± 0.64 µg/mL. For the same compound, the “FRAP assay (C0.5FRAP)” value in data set [2] is 641.6 ± 28.7 µM.

Turning to `Cc1cc(Br)c2c(c1)N/C(=C\C(=O)c1ccc(Br)cc1)C(=O)O2` [Compound 20p, (Z)-8-bromo-3-(2-(4-bromophenyl)-2-oxoethylidene)-6-methyl-3,4-dihydro-2H-benzo[b] [1,4]oxazin-2-one], the melting point was 259 to 260 °C. Further, in data set [1], the DPPH assay IC50 is 44.3 ± 0.45 µg/mL. For the same compound, in data set [2], the “FRAP assay (C0.5FRAP)” value was over 1000 µM.

Take `Cc1ccc(C(=O)/C=C2\Nc3cc(C)cc(Br)c3OC2=O)cc1` [Compound 20q, (Z)-8-bromo-6-methyl-3-(2-oxo-2-(p-tolyl)ethylidene)-3,4-dihydro-2H-benzo[b][1,4]oxazin-2-one]: the melting point fell in the range of 219 to 220 °C. The same compound displayed a DPPH assay IC50 in data set [1] of 36.24 ± 0.27 µg/mL.

In data set [1], `Cc1ccc2c(c1)N/C(=C\C(=O)c1ccc([N+](=O)[O-])cc1)C(=O)O2` [Compound 20r, (Z)-6-methyl-3-(2-(4-nitrophenyl)-2-oxoethylidene)-3,4-dihydro-2H-benzo[1,4]oxazin-2-one] showed a DPPH assay IC50 of 12.23 ± 0.05 µg/mL. Moreover, in data set [2], the “FRAP potency compared with standard reference BHT” value was “potent activity than BHT; also recorded: more potent than standard reference BHT” and the “FRAP assay (C0.5FRAP)” value stood at 328.6 ± 25.8 µM.

Compound `O=C1Oc2ccccc2N/C1=C\C(=O)c1ccc([N+](=O)[O-])cc1` [Compound 20s, (Z)-3-(2-(4-nitrophenyl)-2-oxoethylidene)-3,4-dihydro-2H-benzo[b][1,4]oxazin-2-one] had a melting point of 207 to 209 °C. Besides, the DPPH assay IC50 in data set [1] came to 21.3 ± 0.28 µg/mL. Besides, in data set [2], the “FRAP potency compared with standard reference BHT” value is “less active” and the “FRAP assay (C0.5FRAP)” value was found to be 618.4 ± 23.9 µM.

`O=C1Oc2ccc([N+](=O)[O-])cc2N/C1=C\C(=O)c1ccc(F)cc1` [Compound 20u, (Z)-3-(2-(4-fluorophenyl)-2-oxoethylidene)-6-nitro-3,4-dihydro-2H-benzo[b][1,4]oxazin-2-one] showed a melting point of over 250 °C. The DPPH assay IC50 in data set [1] came out at 32.1 ± 0.52 µg/mL. For the same compound, in data set [2], the “FRAP potency compared with standard reference BHT” value was “more potent than standard reference BHT” and the “FRAP assay (C0.5FRAP)” value came to 424.5 ± 19.7 µM.

In the case of `COc1ccc(C(=O)/C=C2\Nc3cc([N+](=O)[O-])ccc3OC2=O)cc1` [Compound 20v, (Z)-3-(2-(4-methoxyphenyl)-2-oxoethylidene)-6-nitro-3,4-dihydro-2H-benzo[b][1,4]oxazin-2-one], the melting point fell in the range of 195 to 197 °C. This compound gave a DPPH assay IC50 in data set [1] of 43.6 ± 0.92 µg/mL.
